# Experimental data published in article PMC11224403, “Des-acyl ghrelin reduces alcohol intake and alcohol-induced reward in rodents” (Translational Psychiatry, 2024).
# Tested on: CB1 receptor
# Assay: Aquoscreen receptor activity assay, CB1
# Assay type: cell-based, human
# Settings: 50 µM DAG in results (8.3 µM in methods); luminescence, triplicates
substance,measurement,value
"des-acyl ghrelin (GSSFLSPEHQRVQQRKESKKPPAKLQPR; Ghrelin-28 non-acylated; UniProt Q9UBU3 24-51, looked up) [DAG, non-octanoylated form of ghrelin; purchased from Tocris (printed Tocrise Bioscience), dissolved in 0.9% NaCl]",activation of CB1,no activation
